Two compounds from US20020019378A1, “COMPOUNDS” (priority 1997, published 2002) can be followed below.

Series [1] can be described thus: Stability in human lung S9. Format: in vitro ADME. Conditions: human lung S9 diluted 1:1 with phosphate buffer pH 7.4, NADPH, 37° C. As for the experimental part: The stability of the compound of Examples 4 and 6 in a model human lung environment was assessed using the following test protocol: Incubations were carried out, at 37° C., in 500 μL volumes of human lung S9 diluted 1:1 with 10 mM phosphate buffer pH 7.4 to which was added 50 μl of 30 mg/ml (Aq) NADPH. The reactions were started by the addition of 5 μl of test compound (nominally 5 mg/ml solution in DMSO). Aliquots (100 μl) were removed immediately and after 1 hour and mixed with an equal volume of acetonitrile to stop the reaction. Samples were centrifuged and the supernatants were transferred to autosampler vials for HPLC analysis and half-life analysis using methods identical to those described in the ‘stability in human plasma’ test protocol described above. Control incubations containing no lung S9 were also included.

The next series addresses human serum paraoxonase (Homo sapiens, UniProt P27169). In words: Hydrolysis by human serum paraoxonase (enzymatic hydrolysis test method). In kind it is in vitro ADME. The following applies: 5% bovine serum albumin, 20 mM CaCl2, 37° C. As for the experimental part: The compounds herein have relatively short half-lives in blood in vitro. A test method for determining the half-life of the compounds under defined enzymatic hydrolysis conditions in vitro is now described. The test method is believed to provide a suitable indicator as to effects in vivo. In the test method, the hydrolysis of test compounds by a lactonase enzyme is monitored using RP HPLC with UV detection.
The ‘enzymatic hydrolysis test method’ is as follows: Incubations are carried out in 1 ml volumes in an aqueous medium containing 5% bovine serum albumin in the presence of 20 mM CaCl2. The solutions are preincubated at 37° C. for 5 minutes before the addition of the test compound (5 μl of a 5 mg/ml solution in DMSO) and then lactonase enzyme (10 μl to the 1 ml incubations). Control incubations containing no enzyme are also included. The enzymatic hydrolysis is monitored by removal of aliquots and quenching the reaction by the addition of an equal volume of acetonitrile. The samples are vortex mixed, then centrifuged and the supernatants are transferred to autosampler vials for HPLC analysis.
In a suitable HPLC procedure, aliquots (20 μl) of the supernatants are injected onto a Zorbax Rx C8 column (250×4.6mm; Hichrom). The column is maintained at 40° C. and eluted at a flow rate of 1.0 mL/min with a mobile phase of acetonitrile: 50 mM ammonium formate (65:35) adjusted to pH 4.2 with formic acid. Detection is by UV absorbance at 240 nm, and chromatographic peak areas for both parent and metabolite are measured.
In a preferred aspect, the half-life of each compound may be determined by a method in which peak areas are plotted against time on a log-linear scale, and the half lives determined by extrapolation or interpolation of a straight line joining two points.
The above described ‘enzymatic hydrolysis test method’ employs lactonase enzyme. Suitable forms of lactonase enzyme include human serum paraoxonase or a recombinant form thereof, or purified lactonase, obtained from human plasma as described hereinafter. Purification of human serum paraoxonase is described by C E Furlong et al, Chem.Biol.Interactions, Vol 87, p35-48, (1993) and recombinant human serum paraoxonase is described in International Patent application No. WO 96/01322
The susceptibility to hydrolysis by human serum paraoxonase of certain of the compounds of the Examples was assessed using the test protocol of the ‘enzymatic hydrolysis test method’ described herein.

In series [2] the target is T1, Human Glucocorticoid Receptor (Homo sapiens, UniProt P04150).
T1 construct: endogenous in cells; host or cells: HeLa cells stably transfected with an MMTV-LTR sPAP reporter
T1 sequence (P04150 1-777): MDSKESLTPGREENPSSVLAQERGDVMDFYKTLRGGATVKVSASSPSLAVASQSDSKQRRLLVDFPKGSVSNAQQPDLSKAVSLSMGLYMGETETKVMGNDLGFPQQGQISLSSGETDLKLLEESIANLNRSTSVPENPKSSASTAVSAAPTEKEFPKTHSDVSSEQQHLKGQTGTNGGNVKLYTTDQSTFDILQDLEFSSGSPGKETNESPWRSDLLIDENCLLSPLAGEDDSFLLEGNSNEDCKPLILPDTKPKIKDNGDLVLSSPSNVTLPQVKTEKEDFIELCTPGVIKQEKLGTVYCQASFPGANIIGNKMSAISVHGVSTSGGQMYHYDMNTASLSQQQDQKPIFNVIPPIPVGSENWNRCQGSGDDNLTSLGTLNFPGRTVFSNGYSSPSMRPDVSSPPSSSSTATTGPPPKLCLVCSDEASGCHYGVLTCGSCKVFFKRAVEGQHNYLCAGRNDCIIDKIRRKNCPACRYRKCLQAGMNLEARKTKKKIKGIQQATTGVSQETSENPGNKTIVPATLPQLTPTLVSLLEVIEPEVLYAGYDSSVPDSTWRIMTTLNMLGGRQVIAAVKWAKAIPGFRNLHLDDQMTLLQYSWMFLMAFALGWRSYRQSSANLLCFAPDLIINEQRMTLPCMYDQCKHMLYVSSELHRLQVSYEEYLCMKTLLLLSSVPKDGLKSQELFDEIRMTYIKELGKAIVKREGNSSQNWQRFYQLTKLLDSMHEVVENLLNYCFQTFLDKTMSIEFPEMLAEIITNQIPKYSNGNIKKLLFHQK
In words: Functional in vitro glucocorticoid activity assay: Hela cells stably transfected with sPAP reporter gene under MMTV LTR promoter. Format: cell-based. Conditions: 72 hours incubation, values given as 'less than (about)', read-out: EC50 (sPAP transcription, glucocorticoid activity). From the text: The functional assay used was a modification of the method described by T. S Berger et al, of J. of Steroid Biochem. Molec. Biol. 1992, 41 (3-8), 733-738, “Interaction of Glucocorticoid analogues with the Human Glucocorticoid Receptor”. Thus, Hela cells were stably transfected with a detectable reporter gene (secreted placental alkaline phosphatase, sPAP) under the control of a glucocorticoid response promoter (the LTR of the mouse mammary tumour virus, MMTV). Various concentrations of standard (dexamethasone) or compounds of the invention were incubated with transfected Hela cells for 72 hours. At the end of the incubation, substrate ([…]) for sPAP was added and the product measured by a spectrophotometric method. Increased absorbance reflected increased sPAP transcription and concentration-response lines were constructed such that EC50-values could be estimated.

A short description of series [3]: Stability in human plasma test method. Format: in vitro ADME. The following applies: 37° C. As for the experimental part:
The stability of various of the compounds of the Examples in human plasma was tested using the following ‘stability in human plasma’ test method: 500 μl aliquots of human plasma in screw capped polypropylene tubes were preincubated at 37° C. in a waterbath for 5 minutes. The plasma samples were then spiked with 5 μl of test compound (nominally 5 mg/ml in DMSO). Aliquots (100 μl ) were removed immediately and after 5 minutes and mixed with an equal volume of acetonitrile. The samples were centrifuged and the supernatants were transferred to autosampler vials for HPLC and half-life analysis.
In the HPLC procedure, aliquots (20 μl) of all the supernatants were injected onto a Zorbax Rx C8 column (250×4.6mm; Hichrom). The column was maintained at 40° C. and eluted at a flow rate of 1.0 mL/min with a mobile phase of acetonitrile: 50 mM ammonium formate (65:35) adjusted to pH 4.2 with formic acid. Detection was by UV absorbance at 240 nm, and chromatographic peak areas for both parent and metabolite were measured
To determine the half-life, for each compound peak areas were plotted against time on a log-linear scale, and the half lives determined by extrapolation or interpolation of a straight line joining two points.

Each structure is given as a SMILES string.

human serum paraoxonase, sequence (P27169 whole entry): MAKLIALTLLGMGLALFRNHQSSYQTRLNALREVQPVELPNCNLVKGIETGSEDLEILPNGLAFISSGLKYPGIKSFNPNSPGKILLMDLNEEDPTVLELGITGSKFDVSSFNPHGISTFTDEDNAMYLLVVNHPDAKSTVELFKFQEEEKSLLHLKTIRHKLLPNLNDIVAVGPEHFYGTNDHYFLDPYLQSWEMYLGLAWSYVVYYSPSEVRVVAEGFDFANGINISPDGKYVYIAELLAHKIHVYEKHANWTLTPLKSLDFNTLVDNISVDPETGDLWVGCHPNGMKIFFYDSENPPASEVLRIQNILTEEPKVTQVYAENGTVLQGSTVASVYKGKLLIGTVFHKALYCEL

By half-life is commonly meant the time in which the quantity being followed falls by half. Read a low half-life as fast loss. What is called EC50 is the concentration at which the effect is half-maximal. Take `CC12CCC(=O)C=C1C(F)CC1C3CC4OC(CSC5CCOC5=O)OC4(C(=O)CO)C3(C)CC(O)C12F` (stereo not drawn) [Example 4, 6α,9α-Difluoro-11β,21-dihydroxy-16α, 17α-[2-(2-oxo-tetrahydro-furan-3-yl)sulfanyl]ethylidenedioxy-pregn-4-ene-3,20-dione]: the half-life at 45 µg/mL in series [1] was greater than 60 min. In addition, the “Hydrolysis by human serum paraoxonase” value at human serum paraoxonase was “hydrolysed”. The EC50 in series [2] is less than 250 nM. In addition, the half-life at 49.5 µg/mL in series [3] is less than 10 min.

For the compound `Nc1c(Cl)cc(C(O)CNCCCSC2CCOC2=O)cc1Cl.O=C(O)C(F)(F)F` (stereo not drawn) [Example 6, 3-[3-[2-(4-Amino-3,5-dichlorophenyl)-2-hydroxyethylamino]propylsulfanyl]-dihydro-furan-2-one trifluoroacetate], the half-life at 45 µg/mL in series [1] was greater than 60 min. The compound also gave a half-life at 49.5 µg/mL in series [3] of less than 10 min.
